This is an account of results in paper PMC11647683, “Structural Aspects of Mycobacterium tuberculosis DNA Gyrase Targeted by Novel Bacterial Topoisomerase Inhibitors” (ACS Medicinal Chemistry Letters, 2024).

In this experiment the test system is M. tuberculosis LP-FQ-RM9. Type of experiment: cell-based, Mycobacterium tuberculosis. The conditions noted are these: for IC50: read-out: Antituberculosis activity M. tuberculosis LP-FQ-RM9 IC50; for IC90: read-out: Antituberculosis activity M. tuberculosis LP-FQ-RM9 IC90.

SMILES strings stand for the structures.

In the case of `COc1ccc2nccc(CCN3CCC(NCc4ccc(Br)c(F)c4)CC3)c2n1` [Compound 1], the IC50 (usually the concentration that inhibits the measured activity by half) was found to be 380 ± 50 nM and the 90% effect concentration (IC90) (in general, the point of the concentration-response curve where the effect stands at 90%) stood at 520 ± 145 nM.
For the compound `COc1ccc2nccc(CCN3CCC(NCc4ccc(I)c(F)c4)CC3)c2n1` [Compound 2], the IC50 is 420 ± 80 nM and the IC90 came to 580 ± 180 nM.
In the same order, the values of `COc1ccc2nccc(CCN3CCC(NCc4cc(F)c(Cl)c(F)c4)CC3)c2n1` [Compound 3] are 290 nM and 430 nM.
As for `COc1ccc2nccc(CCN3CCC(NCc4cc(F)c(Br)c(F)c4)CC3)c2n1` [Compound 4], the IC90 was 260 nM.
Consider `COc1ccc2nccc(C(O)CC3CCC(NCc4cc(F)c(Br)c(F)c4)CC3)c2n1` (centres unmarked) [Compound 5], for which the IC90 came to 1000 ± 75 nM.
In the case of `C[C@H]1COc2c(N3CCN(C)CC3)c(F)cc3c(=O)c(C(=O)O)cn1c23` [Levofloxacin, reference compound], the 50% inhibitory concentration (IC50) is over 10000 nM and the 90% effect concentration (IC90) was over 10000 nM. In addition, the “activity against the fluoroquinolone-resistant strain” value (result in words) is recorded as “no activity was observed”.
